Measurements: publication PMC10063609, “Discovery of novel cardiac troponin activators using fluorescence polarization-based high throughput screening assays” (Scientific Reports, 2023)
Read-outs that look alike come from different tables or passages of the source.

Tests used:
[1] = molecular target: Ca2+-saturated N-lobe of cTnC; parameters: method as in PMID 35755445; conditions: isolated Ca2+-saturated N-lobe of cTnC; cited from earlier work
[2] = system: Ca2+-saturated cChimera; parameters: method as in PMID 35755445; conditions: cited from earlier work
[3] = system: CcTnC; parameters: method as in PMID 11320096, PMID 10913289; conditions: cited from earlier work
[4] = system: CcTnC and cTnIAR interaction; parameters: method as in PMID 11320096, PMID 10913289; conditions: NMR spectroscopy; cited from earlier work
[5] = system: bovine cardiac myofibrils; assay: NADH-coupled ATPase activity of isolated cardiac myofibrils; assay type: biochemical; conditions: for Effect on ATPase activity of cardiac myofibrils: submaximal calcium activation (~30% of maximum), pCa 6, up to 100 μmol/L; for Effect on myofibrillar ATPase activity / Decrease of myofibrilar ATPase activity: sub-maximal activation (~70% of maximal); for Effect on myofibrillar ATPase activity: pCa 5.8, up to 100 μmol/L; for Decrease of myofibrilar ATPase activity: pCa 5.8
Procedure: Bovine cardiac myofibrils (CMF) were freshly prepared from bovine ventricle as previously described[49]. The NADH-coupled ATPase assay was adapted to test the effects of drugs on bovine cardiac myofibrils[50]. Briefly, buffers with varying free [Ca^2+] were prepared by adding the appropriate concentrations of EGTA and CaCl2 calculated using the MAXCHELATOR software. ATPase assays for hits identified in the cTnI switch peptide and anchoring region screens were performed at pCa 6 and pCa 5.8, respectively. […] 20 μL Enzyme mix was added to individual wells using a 12-well multichannel pipette. Appropriate concentrations of drugs were added to each well and the plate was shaken at 1000 rpm for 5 min on a plate shaker and further incubated at room temperature for 10 min. Substrate mix was dispensed into each well using the Gilson PipetMax. The plate was briefly spun down to ensure removal of air bubbles. The reaction was followed by recording the fluorescence intensity of each well with excitation at 380 nm and emission at 470 nm, for 10 min scanning the plate every 30 s. The temperature was kept constant at 25 °C. ATPase rates were extracted by linear regression to datapoints in GraphPad Prism.

[6] = molecular target: T1, interaction between cTnC and switch peptide of cTnI (cTnISP) (Homo sapiens, UniProt P63316); assay: Fluorescence polarization HTS and dose-response, cTnC/FAM-cTnISP; assay type: binding; conditions: for FP (mP): cTnISP primary screen, single concentration 50 μmol/L; for Effect on FP from a mixture of FAM-cTnISP and cTnC: dose-response, concentration dependent (Fig. 2a)
Procedure: (§1) Each compound was tested at a concentration of 50 μmol/L and 10 μmol/L for the cTnISP and cTnIAR screen, respectively. Hits were defined as compounds that changed the average FP value more than five-times the standard deviation (SD) (Fig. 1d, red lines). Moreover, compounds that either increased or decreased the total fluorescence intensity (FI) more than five-times the SD were removed from further analysis, indicating either compound aggregation or unspecific interactions with the fluorophore or protein complex.
(§2) Libraries were reformatted from 96-well plates to Greiner 384-well black plates using a GILSON PipetMax. The plates were sealed with adhesive foil and stored at − 20 °C until further use. […] A total of 40 nL of 10 mmol/L compound stocks were transferred to each well using a Mosquito liquid handler system (final DMSO concentration of 0.1% (v/v)). The plates were incubated in the dark for 30 min at 25 °C, and the fluorescence polarization from each well was measured using a ClarioStar Plate reader with appropriate excitation and emission filter settings. Dose–response curves were constructed by serial dilution of compounds in DMSO and adding a fixed volume to a mixture of peptide and cTnC.
(§3) Fluorescence polarization dose–response and binding experiments were performed in Greiner 384-well black plates in assay buffer (20 mmol/L Tris–HCl pH 7, 100 mmol/L NaCl, 1 mmol/L CaCl2, 1 mmol/L DTT) at 25 °C.

[7] = molecular target: interaction between cTnC and the anchoring region of cTnI (cTnIAR) (Homo sapiens, UniProt P63316); assay: Fluorescence polarization HTS, binding and dose-response, cTnC/FAM-cTnIAR; conditions: for FP (mP): cTnIAR primary screen, single concentration 10 μmol/L; for Effect on FP from the cTnC FAM-cTnIAR mixture: dose-response, concentration dependent (Fig. 2c); for FP at higher drug concentrations: > 10 μmol/L, potentially assay interference; for Total fluorescence intensity of the assay mixture: concentrations of up to 100 μmol/L, 2 nmol/L FAM-cTnIAR, 5 nmol/L cTnC
Procedure: as §1, §2, §3

[8] = molecular target: T1, interaction between cTnC and switch peptide of cTnI (cTnISP); parameters: method as in PMID 33315370; conditions: printed in Fig. 1c; assay previously published; cited from earlier work
[9] = molecular target: Ca2+-saturated cTnC (Homo sapiens, UniProt P63316); assay: ITC binding to full length Ca2+-saturated cTnC; conditions: for Kd: means ± SEM, n = 3
[10] = molecular target: cTnC-cTnIAR interaction (Homo sapiens, UniProt P63316); assay: ITC titration of unlabelled cTnIAR peptide into cTnC without or with compound
[11] = system: demembranated human donor ventricular tissue; assay: Force-pCa titrations of demembranated human donor myocardium; assay type: cell-based; conditions: 100 μmol/L, 2 μm sarcomere length
Procedure: We tested for the functional effects of hit compounds by measuring the calcium sensitivity of force development of chemically demembranated human donor ventricular tissue at 2 μm sarcomere length in the absence and in the presence of 100 μmol/L compounds (Fig. 6). Force-pCa (pCa = −log10[Ca^2+]) relations for each preparation was measured in the absence and in the presence of each compound, so that each muscle preparation served as its own control.
Briefly, each demembranated cardiac muscle strip underwent a control force-pCa titration in the absence of compounds with the sarcomere length adjusted to about 2 µm by laser diffraction. Drugs were freshly diluted in DMSO and added to physiological buffer solutions. The final DMSO concentration was held constant at 0.2% (v/v). Subsequently, demembranated human heart muscle strips were equilibrated in relaxing solution (pCa 7) containing the appropriate concentrations of drugs for 25 min at 22 °C and the force-pCa titration repeated. Thus, each cardiac muscle strip served as its own negative control and force data were normalized to the maximal force of each preparation in the absence of compounds.

[12] = Solubility in aqueous buffer; assay type: physicochemical
Procedure: Figure S2. […] D MSO stocks of NS5806 were diluted with assay
buffer to the indicated concentrations (fixed DMSO concentration of 0.1% (v/v)), potential
aggregates removed by ultra -centrifugation and the absorbance at 296 nm plotted against the
in aqueous buffers up to a concentration of at least 500 µmol/L. (B) Total fluorescent intensity
dose-response curves for Claramine (red) and Furamidine (green) in the presence of 2 nmol/L
(1 picture or pasted object on this page, not shown here)

O=C(O)c1ccc(-c2ccccc2Nc2cccc(Cl)c2)cc1 [RPI-194]
Kd [1]: > 300 µM | Affinity [2]: low micromolar affinity

COc1ccc(C(=O)N2CCCc3cc(C4=NNC(=O)SC4C)ccc32)cc1OC (centres unmarked) [EMD 57033]
Affinity [3]: micromolar affinity | Effect on the CcTnC and cTnIAR interaction in vitro [4]: no significant effect

O=C(Nc1cccc(C(F)(F)F)c1)Nc1ccc(Br)cc1-c1nn[nH]n1 [NS3623]
Effect on ATPase activity of cardiac myofibrils [5]: significantly increased the ATPase activity | FP (mP) ([6]; TOCRIScreen library): 121.6 mP | Effect on FP from a mixture of FAM-cTnISP and cTnC [6]: increased the FP

O=C(O)c1cccc(-c2ccc(-c3cn(C(=O)N4CCCCC4Cc4ccccc4)nn3)cc2)c1 (centres unmarked) [KT203]
Effect on myofibrillar ATPase activity [5]: no effect | FP (mP) ([7]; LOPAC 1280 library): 71.7 mP | Effect on FP from the cTnC FAM-cTnIAR mixture [7]: decreased the FP

N.N.N.N.N.N.N.N.N.N.N.N.N.N.[Cl-].[Cl-].[Cl-].[Cl-].[Cl-].[Cl-].[O-2].[O-2].[Ru+3].[Ru+3].[Ru+4] [Ruthenium red]
FP (mP) ([7]; LOPAC 1280 library): 44.3 mP | FP (mP) ([6]; LOPAC 1280 library): 83.7 mP

Colistin Sulfate
FP (mP) ([7]; ENZO Screenwell library): 71.7 mP | FP (mP) ([6]; ENZO Screenwell library): 78.5 mP

FAM-A162H-cTnISP: N-terminally FAM labelled A162H-mutated switch region peptide of human cardiac troponin I, sequence TLRRVRISADAMMQALLGARHKESLDLR
Kd [8]: ~10 µM

COc1ccc(-c2oc3c(CC=C(C)C)c(O)cc(O)c3c(=O)c2O)cc1 [Icaritin]
Effect on myofibrillar ATPase activity [5]: no effect | FP (mP) ([7]; LOPAC 1280 library): 64.6 mP | Effect on FP from the cTnC FAM-cTnIAR mixture [7]: decreased the FP

N=C(N)c1ccc(-c2ccc(-c3ccc(C(=N)N)cc3)o2)cc1 [Furamidine]
T∆S [9]: 1.84 ± 0.72 kcal/mol | ∆H [9]: -4.64 ± 0.758 kcal/mol | Kd [9]: 11.9 ± 5.5 µM | Effect on the interaction / binding affinity of cTnC for cTnIAR [10]: reduced by several orders of magnitude | Decrease of myofibrilar ATPase activity [5]: 40–50% | FP at higher drug concentrations [7]: sudden increase in the FP | FP (mP) ([7]; TOCRIScreen library): 73.2 mP | Total fluorescence intensity of the assay mixture [7]: not affected | Effect on FP from the cTnC FAM-cTnIAR mixture [7]: decreased the FP | Effect on calcium sensitivity / force-pCa relation [11]: slightly increased the calcium sensitivity | Effect on maximal isometric force development [11]: no effect | Steepness of the force-pCa relation (nH) [11]: no effect | solubility [12]: > 25 mM | FP (mP) ([6]; LOPAC 1280 library): 91.8 mP | FP (mP) ([6]; TOCRIScreen library): 83.1 mP

CC(C)CCCC(C)C1CCC2C3CC(NCCCNCCCCNCCCN)C4CC(O)CCC4(C)C3CCC12C (centres unmarked) [Claramine]
T∆S [9]: 5.21 ± 0.311 kcal/mol | ∆H [9]: -1.1 ± 0.311 kcal/mol | Kd [9]: 21.6 ± 1.8 µM | Effect on the interaction / binding affinity of cTnC for cTnIAR [10]: no or little effect | Decrease of myofibrilar ATPase activity [5]: 40–50% | FP at higher drug concentrations [7]: sudden increase in the FP | FP (mP) ([7]; LOPAC 1280 library): 53.9 mP | Total fluorescence intensity of the assay mixture [7]: not affected | Effect on FP from the cTnC FAM-cTnIAR mixture [7]: decreased the FP | Effect on calcium sensitivity / force-pCa relation [11]: no or little effect | solubility ([12]; aqueous solutions, read-out: Solubility in aqueous solutions): > 25 mM

O=C(O)c1ccc(/C=C2\SC(=S)N(c3cccc(C(F)(F)F)c3)C2=O)cc1 [CFTR Inh172]
Effect on ATPase activity of cardiac myofibrils [5]: no or little activation | FP (mP) ([6]; TOCRIScreen library): 127.9 mP | Effect on FP from a mixture of FAM-cTnISP and cTnC [6]: increased the FP

CC(C)c1cccc(C(C)C)c1N1C(=O)c2ccc(O)cc2C1=O [5-HPP-33]
Effect on ATPase activity of cardiac myofibrils [5]: no or little activation | FP (mP) ([6]; LOPAC 1280 library): 112 mP | Effect on FP from a mixture of FAM-cTnISP and cTnC [6]: increased the FP
